{"source": "patent US8097605B2", "about": "“Combination of anticholinergics and inhibitors of phosphodiesterase type 4 for the treatment of respiratory disease” (Meda Pharma GmbH & Co. KG, priority 2004, dated 2012)", "key": {"[1]": {"test_system": "allergen-induced airway eosinophilia", "conditions": "Brown Norway rats, administered intrapulmonary; cited from earlier work"}, "[2]": {"conditions": "dog, in vivo, 15 mg/kg; cited from earlier work"}, "[3]": {"test_system": "human peripheral blood mononuclear cells (PBMCs)", "assay": "LPS-induced TNFα release from human PBMCs/monocytes (sandwich ELISA)", "assay_type": "cell-based", "conditions": "LPS 1 μg/ml", "protocol": "The influence of R,R-glycopyrrolate in combination with PDE4 inhibitors on TNF secretion was investigated by using human peripheral blood mononuclear cells (PBMCs). The study was approved by our institutional Ethics Committee according to the International Declarations of Helsinki and Tokyo.\nPBMCs were isolated from heparinized blood samples of healthy donors by density gradient centrifugation. An equal volume of Hanks buffer (Life Technologies, Heidelberg, Germany) is added to heparinized whole blood samples. 15 ml Histopaque-1077 (Sigma, Deisenhofen, Germany) are overlayed with a maximum of 40 ml of blood/Hanks mixture were centrifuged for 30 min at room temperature (2000 rpm). A visible band containing PBMCs is transferred to a fresh tube and washed twice with Hanks-buffer. Finally cells are seeded in RPMI 1640 Medium (Life Technologies, Heidelberg, Germany) with Glutamax I (Gibco BRL, Eggenstein) and 10% fetal calf serum (Boehringer Mannheim, Penzberg, Germany). After isolated, PBMCs were cultured in RPMI 1640 medium supplemented with 10% fetal calf serum (FCS) at 37° C. 5% CO2 overnight. […] by adherence method, non-adherent cells were removed by changing the medium.\nCells are re-suspended at 10^6 cells/ml and incubated in 500 μl volumes in 24-well tissue culture plates (Falcon Becton Dickinson Labware) at 37° C., 5% CO2. After pre-incubation with test substances (0.5 μl/500 μl medium) for 30 min, cells were stimulated with lipopolysaccharide (LPS) (1 μg/ml). […]\nCytokine measurements in culture supernatants are done by sandwich ELISA using matched antibody pairs (Pharmingen, Heidelberg, Germany). […] Plates are read at 450 nm (reference 570 nm) in a microplate reader (Dynatech). The results are expressed as a percentage of the control level of cytokines production by cells stimulated in the absence of the compound."}, "M1-M3 receptors": {"test_system": "M1-M3 receptors", "conditions": "cited from earlier work"}, "M3 muscarinic receptors": {"target": "M3 muscarinic receptors (Homo sapiens, UniProt P20309)", "sequence (P20309 whole entry)": "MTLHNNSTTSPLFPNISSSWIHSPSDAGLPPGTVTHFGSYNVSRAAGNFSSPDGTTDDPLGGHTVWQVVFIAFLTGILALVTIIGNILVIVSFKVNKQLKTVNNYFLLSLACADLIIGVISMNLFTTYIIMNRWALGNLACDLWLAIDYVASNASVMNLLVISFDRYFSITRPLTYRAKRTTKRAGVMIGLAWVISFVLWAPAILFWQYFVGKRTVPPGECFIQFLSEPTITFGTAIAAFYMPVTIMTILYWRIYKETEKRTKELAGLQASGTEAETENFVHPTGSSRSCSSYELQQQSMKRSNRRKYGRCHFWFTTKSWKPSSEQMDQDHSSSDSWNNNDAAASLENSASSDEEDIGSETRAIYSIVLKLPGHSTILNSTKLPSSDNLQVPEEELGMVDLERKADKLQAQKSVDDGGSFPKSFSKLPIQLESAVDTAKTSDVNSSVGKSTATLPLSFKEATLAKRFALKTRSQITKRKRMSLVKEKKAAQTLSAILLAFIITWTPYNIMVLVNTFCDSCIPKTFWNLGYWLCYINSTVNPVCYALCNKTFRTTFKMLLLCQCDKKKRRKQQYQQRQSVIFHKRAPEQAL", "conditions": "kinetics studies; cited from earlier work"}}}
{"smiles": "O=C(Nc1c(Cl)cncc1Cl)C(=O)c1cn(Cc2ccc(F)cc2)c2ccc(O)cc12", "note": "[AWD 12-281]", "values": [{"measurement": "ID50 suppression of allergen-induced airway eosinophilia", "setting": "[1]", "result": 7, "unit": "µg/kg"}, {"measurement": "emesis", "setting": "[2]", "result": "no emesis was induced"}]}
{"smiles": "C[C@H]1C[C@H]2[C@@H]3CCC4=CC(=O)C=C[C@]4(C)[C@@]3(Cl)[C@@H](O)C[C@]2(C)[C@@]1(O)C(=O)CO", "note": "[beclomethasone]", "values": [{"measurement": "ID50 suppression of allergen-induced airway eosinophilia", "setting": "[1]", "result": 0.1, "unit": "µg/kg"}]}
{"smiles": "COc1ccc(C2CNC(=O)C2)cc1OC1CCCC1", "note": "(centres unmarked) [rolipram]", "values": [{"measurement": "IC35 of TNFα release inhibition", "setting": "[3]; rolipram alone", "result": "68.9 ± 15.2", "unit": "nM"}, {"measurement": "IC35 of TNFα release inhibition with simultaneous addition of R,R-glycopyrrolate", "setting": "[3]; rolipram plus 10 μmol/l R,R-glycopyrrolate, p=0.0151", "result": "1.70 ± 1.18", "unit": "nM"}]}
{"smiles": "C[N+]1(C)CCC(OC(=O)C(O)(c2ccccc2)C2CCCC2)C1", "note": "(racemic) [Glycopyrrolate]", "values": [{"measurement": "selectivity in binding to the M1-M3 receptors", "setting": "M1-M3 receptors", "result": "no selectivity"}, {"measurement": "dissociation from M3 muscarinic receptors", "setting": "M3 muscarinic receptors", "result": "dissociates slowly"}]}
{"smiles": "C[N+]1(C)CC[C@@H](OC(=O)[C@](O)(c2ccccc2)C2CCCC2)C1.[Br-]", "note": "[R,R-glycopyrrolate]", "values": [{"measurement": "influence on LPS-induced TNFα release", "setting": "[3]; compound alone, up to 10 μmol/l", "result": "did not influence"}]}
